Measurements reported in patent publication US20130053434A1, “IRREVERSIBLE INHIBITORS USEFUL FOR THE TREATMENT OF KINASE-RELATED PATHOLOGIES” (CENTRE NATIONAL DE LA RECHERCHE SCIENTIFIQUE, priority 2009, published 2013).

Experiments:
[1] = inactivation by thiols such as DTT or GST; type: in vitro ADME
plasma half-life = type: in vitro ADME
VEGFR2 = VEGFR2 (Homo sapiens, UniProt P35968); assay: cellular inhibition of VEGFR2; type: cell-based; conditions: triplicate
Description: FIG. 21. […] Assays were performed in triplicate.
To gage the undiscriminate reactivity of these enone resorcylic acids with thiols, fluoroenone 2 and the parent analogue lacking the fluoride were treated with one equivalent of DTT (2 mM) as a prototypical thiol nucleophile in PBS (pH 7.4) containing 1% DMSO. […] With fluoroenone 1 and 2 in hand, we tested their efficacy against VEGF-R2 which was frequently found to be the most inhibited kinase in our profile of cis-enone resorcylic acid library (Dakas, P. Y., et al. (2007) Angew. Chem. Int. Ed. Engl. 46, 6899-902; Jogireddy, R., et al. (2009) Chem. Eur. J. 15, 11498-506) and KIT which represents a less inhibited kinase. […] Their cellular activity against VEGF-R2 did parallel the biochemical activity. […] During the course of our investigation, a similar modification was reported by researchers from Esai (Du, H., et al. (2009) Bioorg. Med. Chem. Lett. 19, 6196-9) however, their medicinal chemistry efforts focused the inhibition of inflammation related pathways (MEKs and their down-stream regulatory effect on cytokines) (Du, H., et al. (2009) Bioorg. Med. Chem. Lett. 19, 6196-9; Goto, M., et al. (2009) J. Pharmacol. Exp. Ther. 331, 485-95). […]

MEK = MEK (Homo sapiens, UniProt Q02750); conditions: reported values; read-out: MEK inhibition; cited from earlier work
Sequence of MEK (Q02750 whole entry): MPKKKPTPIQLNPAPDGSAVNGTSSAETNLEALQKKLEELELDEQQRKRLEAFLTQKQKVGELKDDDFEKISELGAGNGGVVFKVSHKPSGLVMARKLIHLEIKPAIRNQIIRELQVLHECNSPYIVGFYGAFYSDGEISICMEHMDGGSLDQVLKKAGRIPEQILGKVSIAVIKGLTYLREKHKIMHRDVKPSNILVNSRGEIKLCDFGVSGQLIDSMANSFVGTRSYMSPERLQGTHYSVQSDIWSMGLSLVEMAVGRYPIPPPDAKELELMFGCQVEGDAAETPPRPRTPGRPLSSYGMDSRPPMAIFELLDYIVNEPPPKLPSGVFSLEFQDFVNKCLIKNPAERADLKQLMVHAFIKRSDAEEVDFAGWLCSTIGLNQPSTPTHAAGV

ERK2 = ERK2 (Homo sapiens, UniProt P28482); conditions: Nakajima and Miyake; cited from earlier work
Sequence of ERK2 (P28482 whole entry, species assumed): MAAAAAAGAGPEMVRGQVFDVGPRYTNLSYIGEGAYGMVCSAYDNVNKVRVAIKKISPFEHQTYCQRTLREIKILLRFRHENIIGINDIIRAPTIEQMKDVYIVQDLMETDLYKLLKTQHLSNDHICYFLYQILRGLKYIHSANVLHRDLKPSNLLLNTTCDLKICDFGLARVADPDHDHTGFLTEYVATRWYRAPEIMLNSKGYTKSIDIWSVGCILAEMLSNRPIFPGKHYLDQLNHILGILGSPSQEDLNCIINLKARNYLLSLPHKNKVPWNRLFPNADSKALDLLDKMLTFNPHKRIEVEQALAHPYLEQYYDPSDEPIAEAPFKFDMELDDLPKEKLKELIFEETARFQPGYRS

[2] = in vivo; cited from earlier work

Sequence of VEGFR2 (P35968 20-1356, species assumed): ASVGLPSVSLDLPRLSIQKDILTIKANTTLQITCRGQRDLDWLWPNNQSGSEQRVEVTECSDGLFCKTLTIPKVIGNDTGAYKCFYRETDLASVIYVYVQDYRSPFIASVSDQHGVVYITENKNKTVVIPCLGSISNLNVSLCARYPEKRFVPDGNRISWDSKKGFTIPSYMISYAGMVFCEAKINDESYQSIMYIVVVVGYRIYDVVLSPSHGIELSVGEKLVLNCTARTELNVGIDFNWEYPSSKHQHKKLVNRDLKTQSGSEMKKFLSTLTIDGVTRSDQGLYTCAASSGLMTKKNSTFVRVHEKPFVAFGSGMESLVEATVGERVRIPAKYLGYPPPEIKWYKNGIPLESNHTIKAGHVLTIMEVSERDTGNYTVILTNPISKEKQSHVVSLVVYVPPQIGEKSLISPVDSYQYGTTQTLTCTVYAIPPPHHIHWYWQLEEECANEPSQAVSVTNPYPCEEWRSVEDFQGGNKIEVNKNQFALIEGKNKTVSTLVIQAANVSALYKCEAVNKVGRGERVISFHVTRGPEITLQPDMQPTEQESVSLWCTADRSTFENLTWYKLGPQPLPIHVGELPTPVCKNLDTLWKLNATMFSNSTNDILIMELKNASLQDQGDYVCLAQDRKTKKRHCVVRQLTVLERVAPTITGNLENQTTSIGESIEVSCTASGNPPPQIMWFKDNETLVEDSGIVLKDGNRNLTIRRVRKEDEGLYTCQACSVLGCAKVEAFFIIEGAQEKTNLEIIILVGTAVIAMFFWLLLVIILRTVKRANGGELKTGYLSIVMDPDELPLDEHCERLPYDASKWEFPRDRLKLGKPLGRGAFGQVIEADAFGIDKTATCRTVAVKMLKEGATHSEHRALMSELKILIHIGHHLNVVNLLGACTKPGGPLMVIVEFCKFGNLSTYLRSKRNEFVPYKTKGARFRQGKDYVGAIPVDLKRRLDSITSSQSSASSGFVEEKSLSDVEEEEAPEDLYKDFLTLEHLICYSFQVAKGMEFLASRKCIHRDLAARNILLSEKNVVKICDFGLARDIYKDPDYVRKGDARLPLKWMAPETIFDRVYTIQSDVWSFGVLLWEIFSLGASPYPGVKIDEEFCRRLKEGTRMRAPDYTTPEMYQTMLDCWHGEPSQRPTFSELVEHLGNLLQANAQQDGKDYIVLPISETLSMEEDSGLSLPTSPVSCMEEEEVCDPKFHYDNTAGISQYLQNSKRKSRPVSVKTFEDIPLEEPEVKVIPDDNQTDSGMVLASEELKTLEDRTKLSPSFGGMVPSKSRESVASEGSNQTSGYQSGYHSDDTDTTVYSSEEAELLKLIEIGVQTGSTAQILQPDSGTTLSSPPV

COc1cc(O)c2c(c1)/C=C/C[C@H](O)[C@H](O)C(=O)/C=C\C[C@H](C)OC2=O [LL-Z1640-2]
inactivation by thiols [1]: inactivated by thiols such as DTT or GST
plasma half-life (plasma half-life): short plasma half-life
IC50 (VEGFR2): 6.5 nM
IC50 (MEK): 411 nM
difference in activity between LL-Z1640-2 and L-783277 in inhibition of ERK2 (ERK2): 50 fold
efficacy in animal models [2]: effective in animal models
